This note sets out measurements from patent US9433607B2, “Composition for prevention or treatment of cancer comprising N-methylenenaphtho[2,1-b]furan-2-carbohydrazide derivatives as an active ingredient” (KOREA RESEARCH INSTITUTE OF BIOSCIENCE AND BIOTECHNOLOGY, priority 2012, dated 2016).

One assay has as its system U373MG. Briefly: Anti-proliferative MTT assay, U373MG. Conditions: Homo sapiens, U373 MG, 96 h, Brain, 4 days. The class given is cell-based. The method, then:
(§1) Various cancer cell lines (rectal cancer, prostate cancer, breast cancer, lung cancer, stomach cancer, liver cancer, leukemia, brain cancer, and glioma cell lines) were cultured in microtiter plate (1-3×10^3 cells/well), to which ethyl(2-methyl-3{(E)-[(naphtho[2,1-b]furan-2-ylcarbonyl)hydrazono]methyl}-1H-indole-1-yl)acetate was treated. The culture continued for 4 days. Cytotoxicity was investigated by MTT assay by the same manner as described in Example <1-2>. IC50 was calculated by long-dose response curve. The data presents the mean value obtained from the assay performed in triplicate.
A general note: Formazan colour is commonly taken as a measure of viable cells.

In a further assay the test system is K562. Briefly: Cytotoxicity MTT assay, K562. Conditions: Homo sapiens, 96 h, 4 days. The assay is classed as cell-based. The method, then:
(§2) Particularly, K562, MCF7 (Bio-Evaluation Center, Korea Research Institute of Bioscience and Biotechnology, Korea), and the multi-drug resistant cell lines thereof, K562/ADR and MCF7/ADR (Bio-Evaluation Center, Korea Research Institute of Bioscience and Biotechnology, Korea) were cultured in microtiter plate (1-3×10^3 cells/well). Then, the cells were treated with ethyl(2-methyl-3{(E)-[(naphtho[2,1-b]furan-2-ylcarbonyl)hydrazono]methyl}-1H-indole-1-yl)acetate, doxorubicin, or taxol, followed by culture for 4 days. Cytotoxicity was investigated by MTT assay by the same manner as described in Example <1-2>. IC50 was calculated by long-dose response curve. The data presents the mean value obtained from the assay performed in triplicate (Table 3).

For a further assay, the system named is HeLa cells. Briefly: Immunofluorescence of intracellular microtubules and chromosomes. The class given is cell-based. The method, then: To investigate the effect of ethyl(2-methyl-3{(E)-[(naphtho[2,1-b]furan-2-ylcarbonyl)hydrazono]methyl}-1H-indole-1-yl)acetate on intracellular microtubules, HeLa cells were treated with DMSO, Taxol (100 μM), nocodazole (200 ng/ml), or ethyl(2-methyl-3{(E)-[(naphtho[2,1-b]furan-2-ylcarbonyl)hydrazono]methyl}-1H-indole-1-yl)acetate (5 μM) for 17 hours. After fixing the cells, the cells were immuno-stained with Alexa Fluor 488-conjugated anti-tubulin antibody and Hoechst 33342 to confirm α-tubulin and chromosomes.

The next assay deals with Hep3B. The experiment in a line: Anti-proliferative MTT assay, Hep3B. The assay is classed as cell-based. Conditions: Homo sapiens, 96 h, Liver, 4 days. The protocol:
as §1

In a further assay the test system is caspase-3 and PARP. The experiment in a line: Immunoblotting of apoptosis related proteins. The class given is cell-based. Conditions: HeLa cells. The method, then:
Particularly, HeLa cells were treated with DMSO or ethyl(2-methyl-3{(E)-[(naphtho[2,1-b]furan-2-ylcarbonyl)hydrazono]methyl}-1H-indole-1-yl)acetate for 24 or 48 hours. Then, immunoblotting was performed to investigate the expressions of caspase-3 and PARP, the apoptosis related proteins. PARP (poly(ADP-ribose)polymerase) is one of the downstream cleavage proteins derived from caspase3. Immunoblotting was performed using caspase-3, PARP, and GAPDH specific antibodies.
On the technique in general: In western blotting, separated proteins are transferred to a membrane and probed.

The next assay has as its system A549. The experiment in a line: Anti-proliferative MTT assay, A549. The assay is classed as cell-based. Conditions: Homo sapiens, 96 h, A549, Lung, 4 days. The protocol: as §1
Assay [1] has as its system Various cancer cell lines. The experiment in a line: Anti-proliferative MTT assay, various cancer cell lines (summary). The assay is classed as cell-based. Particulars: 96 h, range over the cell lines, 4 days, read-out: IC50 across cancer cell lines. The protocol: as §1
A further assay deals with SNU-601. The experiment in a line: Anti-proliferative MTT assay, SNU-601. The assay is classed as cell-based. Conditions: 96 h, SNU-601, Stomach, 4 days. The protocol:
as §1

Another assay concerns SNB-75. Briefly: Anti-proliferative MTT assay, SNB-75. Conditions: Homo sapiens, 96 h, SNB-75, Brain, 4 days. The assay is classed as cell-based. The protocol:
as §1

Assay [2] has as its system FVB/N mouse induced with skin tumor. The experiment in a line: DMBA/TPA induced skin tumor model. The assay is classed as in vivo. The method, then: In this invention, the male FVB/N mice (6-7 weeks, Jackson Laboratory, USA) were raised under the condition of 12 hr bright lighting/12 hr dim lighting at the temperature of 24±2° C. with the humidity of 50±10% with water and feed provided freely. The care and process of the test animal was reviewed and approved by Institutional Animal Care and Use Committee (IACUC), Korea Research Institute of Bioscience and Biotechnology (KRIBB). DMBA (7,12-dimethylbenz[α]anthracene), TPA (12-O-tetradecanoylphorbol-13-acetate) and cholchicine were purchased from Sigma-Aldrich, and the synthesized ethyl(2-methyl-3{(E)-[(naphtho[2,1-b]furan-2-ylcarbonyl)hydrazono]methyl}-1H-indole-1-yl)acetate was provided from Dr. Thimmegowda.
Particularly, the dorsal skin of the said FVB/N mouse was shaved two days before the experiment. 100 μg of DMBA was added to 0.2 ml of acetone, which was treated to the mouse by single-local administration for 1 week to induce tumor. 5 fig of TPA was added to 0.2 ml of acetone, which was treated to the above mouse induced with tumor […] for 15 weeks to grow the tumor. 500 nM of ethyl(2-methyl-3{(E)-[(naphtho[2,1-b]furan-2-ylcarbonyl)hydrazono]methyl}-1H-indole-1-yl)acetate or cholchicine was dissolved in 0.2 ml of acetone, which was treated to the above mouse locally for 30 minutes each time for 15 weeks. Each group was composed of at least 10 mice and total 4 groups were prepared:
Group 1: DMBA and acetone treated group (negative control)
Group 2: DMBA and TPA treated group (positive control)
Group 3: DMBA/TPA and cholchicine treated group (experimental group 1)
Group 4: DMBA/TPA and ethyl(2-methyl-3{(E)-[(naphtho[2,1-b]furan-2-ylcarbonyl)hydrazono]methyl}-1H-indole-1-yl)acetate treated group (experimental group 2).
In addition, skin tumor such as papilloma was checked every week during the whole period of experiment. The tumor in the size of at least 2 mm was judged as positive. 15 weeks later, the mice were sacrificed with CO2. The skin tumor was extracted for histopathological/biochemical analysis.
The average number and the volume of tumor in each group were calculated.
Each mouse group was treated with different materials by the same manner as described in Example <8-2>, followed by observation for 15 weeks, and then the number of mice having skin tumor was counted. Tumor development rate was presented as %.
The mouse induced with skin tumor by the same manner as described in Example <8-2> was treated with DMBA, and then the induced tumors were observed and weighed for 15 weeks to produce the average weight of tumor.

For another assay, the system named is MCF7. The experiment in a line: Cytotoxicity MTT assay, MCF7. The class given is cell-based. Particulars: Homo sapiens, 96 h, 4 days. The method, then:
as §2

pIC50: −log10 of the molar value.

The pIC50 is −log10 of the IC50, conventionally taken in molar units. Regarding `CCOC(=O)Cn1c(C)c(/C=N/NC(=O)c2cc3c(ccc4ccccc43)o2)c2ccccc21` [STK899704], the pIC50 with U373MG was 6.29; in the assay with K562 it was 6.35; in the assay with Hep3B it was 6.17; with A549 it was 6.07; in assay [1] it was 5.97 to 6.66; in the assay on SNU-601 it was 6.11. Further, the pIC50 was 6.23 in the assay on SNB-75 and 2.97 in the assay with MCF7. Further, in the assay on HeLa cells (1 μM), the “effect on microtubules (immunofluorescence over concentrations)” value is reported as “all the microtubules were destroyed”. For the same compound, in the assay on HeLa cells (17 hours, Taxol 100 μM, nocodazole 200 ng/ml, compound 5 μM), the “effect on microtubules and chromosomes (immunostaining)” value was “chromosomes were not fully condensed and microtubules were destroyed”. Also, the PARP cleavage entry in the assay with caspase-3 and PARP (48 hours) was “significantly increased”. For the same compound, the caspase-3 cleavage result is reported as “significantly increased” in the assay on caspase-3 and PARP (48 hours, 0.5 μM); “more significantly increased” in the assay with caspase-3 and PARP (48 hours, 1 and 5 μM); “not observed” with caspase-3 and PARP (within 24 hours). For the same compound, the “number of skin tumor” value in assay [2] (500 nM in 0.2 ml acetone, local, 15 weeks) is given as “significantly reduced”. The “weight of tumor compared with positive control” value in [2] (15 weeks) is “significantly lighter”. Moreover, the “average volume of skin tumor reduced compared with positive control” value in assay [2] (15 weeks, 500 nM local) is 20.3%. The “decrease of average number of skin tumor compared with positive control” value in [2] (15 weeks, 500 nM local) came out at 4.75 times. Besides, the “average weight of tumor as fraction of positive control” value in [2] (15 weeks, experimental group 2) is given as 1/10. In addition, the “week to which tumor formation was postponed” value in assay [2] (tumor of at least 2 mm, positive control from 8th week) was 10 week.
